In patent US4316839A, “Imidazodiazepine derivatives” (Hoffman-La Roche Inc., priority 1979, dated 1982):

Key:
Schistosoma mansoni [1] = experiment: schistosomicidal activity in infected mice; type: in vivo; conditions: Mouse
Method: (§1) Mice and golden hamsters are infected subcutaneously with 60 cercaria of Schistosoma mansoni. Ca 42 days after the infection, they are treated orally with a single dosage of the compound to be tested. 5 Animals are used per test preparation and dosage. 10 Untreated animals are used as controls. The animals are killed and dissected 2 weeks (hamster) or 3 weeks (mice) after the treatment. Worm pairs in mesenteric veins, portal vein and liver are dissected-out, counted and the condition of the worms (living or dead) is registered. A schistosomicidal activity of a test preparation manifests itself in the appearance of dead worms in the vessels of the liver. Dead worms are never found in untreated control animals. The test is evaluated by calculating the percentage of dead worm pairs in the vessels of the liver in infected, treated animals.
(§2) The following representative compounds of formula I were tested in tests described earlier for possible detrimental effects on the schistosomicidal activity of (+)-5-(o-chlorophenyl)-1,3-dihydro-3-methyl-7-nitro-2H-1,4-benzodiazepin-2-one (compound S).

Schistosoma mansoni [2] = experiment: in vitro schistosomicidal activity (motility of isolated worm pairs); type: cell-based; conditions: 25 μg/ml alone
Method: In order to test the in vitro activity of preparations, worm pairs of Schistosoma mansoni are isolated from mice and incubated at 37° C. in a nutrient medium. Test preparations are added in the form of a solution or as a suspension. The motility of the worms is observed under the microscope and registered during the test duration of 120 hours. A schistosomicidal activity of a test preparation manifests itself in the more or less rapid loss of motility of the worms. Control worms in the nutrient medium without the addition of test preparation maintain their normal motility during the entire test duration of 120 hours.
as §2

Schistosoma mansoni [3] = experiment: schistosomicidal activity in infected golden hamsters; type: in vivo; conditions: Hamster; Compound S 75 mg/kg p.o. alone
Method: as §1, §2

[4] = test system: diazepam effect in the pentetrazole test; experiment: pentetrazole test: antagonism of the diazepam effect in mice; type: in vivo; conditions: Mus musculus, po; mice; diazepam 5 mg/kg i.p. 1 hour and test compound 15 min before pentetrazole 120 mg/kg i.p.
Method: This property was used as a basis for the test described hereinafter which permits the determination of compounds which are capable of antagonising the central properties of 1,4-benzodiazepines which have tranquillising activity.
The antagonistic activity of the compounds tested, i.e. their ability to counteract the activity of diazepam in the pentetrazole test, is determined by counting the mice which suffer spasmodic seizures in this test.
(§3) In the following Table there are compiled the results which have been obtained with representative compounds of formula I. The ED50 value is given for each compound listed in the Table. The ED50 is the amount of the test compound in mg/kg (p.o.) which counteracts in 50% of the animals the diazepam effect in the foregoing test. Moreover, the Table contains the IC50 value (defined hereinbefore) for all test compounds listed therein as well as details concerning the acute toxicity of certain compounds (LD50 in mg/kg following single oral administration to mice).

[5] = acute toxicity following single oral administration to mice; conditions: mouse, in vivo
Excerpt: as §3

[6] = molecular target: specific benzodiazepine receptors in the cerebral cortex; experiment: inhibition of the binding of tritiated diazepam at the specific benzodiazepine receptors in the cerebral cortex; conditions: compounds of formula I with A = group (a)
Method: The affinity of compounds of formula I to the central benzodiazepine receptors was determined according to the method described in Life Science 20, 2101-2110 (1977) and Science 198, 849-851 (1977). According to this method, the inhibition of the binding of tritiated diazepam at the specific benzodiazepine receptors in the cerebral cortex by test substances is ascertained. The IC50 ("50% inhibiting concentration") is that concentration of the test substance which brings about a 50 percent inhibition of the specific binding of the tritiated diazepam at the specific benzodiazepine receptors in the cerebral cortex.
as §3

[7] = test system: central activities of flunitrazepam; experiment: EEG of the dorsal hippocampus (theta rhythm) in conscious, curarised rats; antagonism of flunitrazepam; type: in vivo
Method: Four tests were carried out on conscious, curarised, artifically respirated rats. The bipolar-derived EEG of the dorsal hippocampus served as the measured variable. 10 minutes after the beginning of the derivation flunitrazepam was administered intravenously in a dosage of 0.1 mg/kg. The test substance was likewise administered intravenously in a dosage of 1 mg/kg to one animal 10 minutes and to three animals 30 minutes after the administration of flunitrazepam. The EEGs obtained were analysed continuously in the frequency range according to the rules of the Fourier transformation, whereby each of the computed spectra related to 1 minute.
The normal EEG from the hippocampus of conscious, curarised rats is characterised by a stable theta rhythm of 3.75-4.25 Hertz which remains unchanged at least 3 hours after the beginning of the artificial respiration. Flunitrazepam, in the given dosage, completely suppresses this theta rhythm for about 15 minutes. Thereafter, there appears a rhythm which is slowed down to 2.75-3.25 Hertz, which increases continuously and again attains the normal frequency of 4 Hertz 1 to 1.5 hours after the injection.

CC1N=C(c2ccccc2Cl)c2cc([N+](=O)[O-])ccc2NC1=O (single isomer, unassigned; (+)) [Compound S, (+)-5-(o-chlorophenyl)-1,3-dihydro-3-methyl-7-nitro-2H-1,4-benzodiazepin-2-one]
Schistosomicidal activity in % (Schistosoma mansoni [1]; Compound S 75 mg/kg p.o. alone): 99% | Activity (in vitro) (Schistosoma mansoni [2]): a (worm pairs motionless within 15) | Schistosomicidal activity in % (Schistosoma mansoni [3]): 100%

CCOC(=O)c1ncn2c1CN(C)C(=O)c1cc(F)ccc1-2 [Example 1, ethyl 8-fluoro-5,6-dihydro-5-methyl-6-oxo-4H-imidazo[1,5-a][1,4]benzodiazepine-3-carboxylate]
Schistosomicidal activity in % (Schistosoma mansoni [1]; 750 mg/kg p.o. alone): 0% | ED50 [4]: 5.8 mg/kg | LD50 [5]: > 5000 mg/kg | IC50 [6]: 2.5 µM

CCOC(=O)c1ncn2c1[C@@H]1CCCN1C(=O)c1ccccc1-2 [Example 30, ethyl (S)-11,12,13,13a-tetrahydro-9-oxo-9H-imidazo[1,5-a]pyrrolo[2,1-c][1,4]benzodiazepine-1-carboxylate]
ED50 [4]: 9.3 mg/kg | LD50 [5]: 1250 to 2500 mg/kg | IC50 [6]: 6.4 µM | theta rhythm frequency after test substance ([7]; 1 mg/kg i.v., 10 or 30 min after flunitrazepam): 4 Hertz | normalisation of theta rhythm ([7]; 1 mg/kg i.v., 10 or 30 min after flunitrazepam 0.1 mg/kg i.v.): immediate, long-lasting normalisation of the described theta rhythm at 4 Hertz | effect on theta rhythm ([7]; 1 mg/kg i.v., 10 min after flunitrazepam): immediately brought about the rhythm suppressed by flunitrazepam, whereby this showed the normal frequency from the outset | effect on theta rhythm ([7]; 1 mg/kg i.v., 30 min after flunitrazepam): accelerated the already, but slowly, re-appearing rhythm immediately to its normal frequency of 4 Hertz | antagonism of the central activities of flunitrazepam ([7]; rats, overall finding): antagonises the central activities of the known 1,4-benzodiazepine derivative flunitrazepam

CN1C(=O)CN=C(c2ccccc2F)c2cc([N+](=O)[O-])ccc21 [flunitrazepam, reference compound]
complete suppression of theta rhythm, duration ([7]; flunitrazepam 0.1 mg/kg i.v.): about 15 minutes | frequency of slowed-down rhythm ([7]; flunitrazepam 0.1 mg/kg i.v., after suppression phase): 2.75-3.25 Hertz | time to again attain normal frequency of 4 Hertz ([7]; flunitrazepam 0.1 mg/kg i.v., after the injection): 1 to 1.5 h
